Measured values: ChEMBL document CHEMBL5579832, “Design, synthesis, and biological evaluation of pyrido[2,3-d]pyrimidin-7(8H)-one derivatives as potent USP1 inhibitors” (Eur J Med Chem, 2024)
Calls of active or inactive are those of the source. The calls are words filed in the database; no cut-off is given here.

What was measured:
[1] = molecular target: T1, Ubiquitin carboxyl-terminal hydrolase 1/WD repeat-containing protein 48 (Homo sapiens) (UniProt O94782+Q8TAF3); experiment: Inhibition of USP1-UAF1 complex (unknown origin) using Ub-7-amido-4-methylcoumarin as substrate at 10 uM incubated for 2 hrs by fluorescence based analysis relative to control; assay type: protein-complex assay
[2] = tested on: MDA-MB-436; experiment: Induction of cell cycle arrest in human MDA-MB-436 cells assessed as increase in cells at S phase at 1 uM incubated for 24 hrs by PI staining based flow cytometry analysis; assay type: functional
[3] = molecular target: Ubiquitin carboxyl-terminal hydrolase 1/WD repeat-containing protein 48 (Homo sapiens, UniProt O94782); experiment: Inhibition of USP1-UAF1 complex (unknown origin) using Ub-7-amido-4-methylcoumarin as substrate incubated for 2 hrs by fluorescence based analysis; assay type: protein-complex assay
Sequence of Ubiquitin carboxyl-terminal hydrolase 1/WD repeat-containing protein 48 (O94782 whole entry): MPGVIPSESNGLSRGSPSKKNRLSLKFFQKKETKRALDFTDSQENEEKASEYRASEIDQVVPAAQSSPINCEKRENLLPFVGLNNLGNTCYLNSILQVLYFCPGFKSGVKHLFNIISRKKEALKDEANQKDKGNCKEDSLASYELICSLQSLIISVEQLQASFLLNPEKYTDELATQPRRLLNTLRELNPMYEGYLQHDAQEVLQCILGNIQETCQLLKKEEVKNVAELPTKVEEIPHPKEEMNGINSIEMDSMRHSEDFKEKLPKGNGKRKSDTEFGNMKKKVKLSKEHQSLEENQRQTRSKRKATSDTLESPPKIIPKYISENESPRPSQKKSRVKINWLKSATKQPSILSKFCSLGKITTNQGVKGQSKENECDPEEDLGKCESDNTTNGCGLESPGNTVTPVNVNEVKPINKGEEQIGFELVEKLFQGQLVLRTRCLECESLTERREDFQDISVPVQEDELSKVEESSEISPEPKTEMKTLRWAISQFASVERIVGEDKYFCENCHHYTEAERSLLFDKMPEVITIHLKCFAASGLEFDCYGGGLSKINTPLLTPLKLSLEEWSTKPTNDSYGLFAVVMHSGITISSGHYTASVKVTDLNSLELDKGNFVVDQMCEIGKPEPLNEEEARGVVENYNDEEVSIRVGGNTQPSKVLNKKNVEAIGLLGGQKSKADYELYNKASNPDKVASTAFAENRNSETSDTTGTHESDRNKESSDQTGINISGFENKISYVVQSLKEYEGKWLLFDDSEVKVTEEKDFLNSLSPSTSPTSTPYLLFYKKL
Sequence of Ubiquitin carboxyl-terminal hydrolase 1/WD repeat-containing protein 48 (Q8TAF3 whole entry, further chain): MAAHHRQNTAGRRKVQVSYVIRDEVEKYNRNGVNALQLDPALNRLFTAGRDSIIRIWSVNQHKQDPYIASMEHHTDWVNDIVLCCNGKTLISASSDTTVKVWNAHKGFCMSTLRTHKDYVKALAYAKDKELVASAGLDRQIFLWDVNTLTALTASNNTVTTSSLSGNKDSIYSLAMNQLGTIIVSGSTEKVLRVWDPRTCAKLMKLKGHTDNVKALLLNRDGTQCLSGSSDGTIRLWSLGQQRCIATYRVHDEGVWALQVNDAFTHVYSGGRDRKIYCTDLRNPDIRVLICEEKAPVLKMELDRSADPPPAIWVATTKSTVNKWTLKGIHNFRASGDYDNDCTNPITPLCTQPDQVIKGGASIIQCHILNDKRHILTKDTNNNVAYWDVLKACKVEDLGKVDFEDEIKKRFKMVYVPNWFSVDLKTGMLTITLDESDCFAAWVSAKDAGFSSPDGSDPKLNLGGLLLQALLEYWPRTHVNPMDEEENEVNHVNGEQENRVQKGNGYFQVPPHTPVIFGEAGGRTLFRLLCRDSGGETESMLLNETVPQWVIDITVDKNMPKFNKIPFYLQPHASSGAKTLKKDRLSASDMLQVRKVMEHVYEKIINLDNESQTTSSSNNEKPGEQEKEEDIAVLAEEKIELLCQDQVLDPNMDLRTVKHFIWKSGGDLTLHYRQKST

[4] = molecular target: T1, Ubiquitin carboxyl-terminal hydrolase 1/WD repeat-containing protein 48 (Homo sapiens); conditions: NCI-H1299, dose 20-500 nM, time 24.0 hrs
[5] = tested on: NCI-H1299; experiment: Inhibition of colony formation in human NCI-H1299 cells at 0.5 uM measured after 7 days by SRB staining based assay relative to control; assay type: functional; conditions: NCI-H1299, 168 h, time 7 day
[6] = tested on: Olaparib-resistant MDA-MB-436; experiment: Inhibition of colony formation in human Olaparib-resistant MDA-MB-436 cell assessed as cell killing at 100 nM measured after 7 days by SRB staining based assay; assay type: functional; conditions: time 7.0 day

| Compound | IC50 [3] [nM] | other results |
| --- | --- | --- |
| COc1ncnc(C2CC2)c1-c1ncc2ccc(=O)n(Cc3ccc(-n4cccc4)cc3)c2n1 | – | inhibition [1]: 71.6% |
| COc1cccc(OC)c1-c1ncc2ccc(=O)n(Cc3ccc(-c4nc(C(F)(F)F)cn4C(C)C)cc3)c2n1 | 18.8 | Activity [2]: Active; inhibition [4]: Dose-Dependent Effect; inhibition at 0.5 µM [5]: 70% |
| CC(C)n1cc(C(F)(F)F)nc1-c1ccc(Cn2c(=O)ccc3cnc(-c4c(Cl)cccc4Cl)nc32)cc1 | > 10000 | – |
| COc1ncnc(C2CC2)c1-c1ncc2ccc(=O)n(Cc3c(F)cc(-c4nc(C(F)(F)F)cn4C(C)C)cc3F)c2n1 | 246 | – |
| COc1ncnc(C2CC2)c1-c1ncc2ccc(=O)n(C(C)c3ccc(-c4nc(C(F)(F)F)cn4C(C)C)cc3)c2n1 (centres undefined) | 83.9 | – |
| CC(C)n1cc(C(F)(F)F)nc1-c1ccc(Cn2c(=O)ccc3cnc(-c4c(Cl)cnn4C(C)C)nc32)cc1 | > 10000 | – |
| COc1ccccc1-c1ncc2ccc(=O)n(Cc3ccc(-c4nc(C(F)(F)F)cn4C(C)C)cc3)c2n1 | > 10000 | – |
| CC(C)n1cc(C(F)(F)F)nc1-c1ccc(Cn2c(=O)ccc3cnc(-c4cccc5ncsc45)nc32)cc1 | > 10000 | – |
| CC(C)n1cc(C(F)(F)F)nc1-c1ccc(Cn2c(=O)ccc3cnc(-c4ccnn4C(C)C)nc32)cc1 | – | inhibition [1]: 56.6% |
| COc1ncnc(C2CC2)c1-c1ncc2ccc(=O)n(Cc3ccc(-c4nc(C(F)(F)F)cn4CC4CC4)cc3)c2n1 | 11.2 | – |
| COc1ncnc(C2CC2)c1-c1ncc2ccc(=O)n(Cc3ccc(-n4nc(C(F)(F)F)cc4C)cc3)c2n1 | – | Activity [2]: Active; inhibition [4]: Dose-Dependent Effect; inhibition at 0.5 µM [5]: 70% |
| CC(C)n1cc(C(F)(F)F)nc1-c1ccc(Cn2c(=O)ccc3cnc(-c4ccccc4C(F)(F)F)nc32)cc1 | 195 | – |
| CC(C)n1cc(C(F)(F)F)nc1-c1ccc(Cn2c(=O)ccc3cnc(-c4c(F)cccc4Cl)nc32)cc1 | > 10000 | – |
| O=C(c1cc(Cc2n[nH]c(=O)c3ccccc23)ccc1F)N1CCN(C(=O)C2CC2)CC1 | – | inhibition [6]: inactive |
| COc1cccc(F)c1-c1ncc2ccc(=O)n(Cc3ccc(-c4nc(C(F)(F)F)cn4C(C)C)cc3)c2n1 | 23.3 | – |
| CC(C)n1cc(C(F)(F)F)nc1-c1ccc(Cn2c(=O)ccc3cnc(-c4ccnn4C)nc32)cc1 | > 10000 | – |
| COc1ncnc(C2CC2)c1-c1ncc2ccc(=O)n(Cc3ccc(-n4ccnn4)cc3)c2n1 | – | inhibition [1]: 54.6% |

| Compound | IC50 [3] [nM] | other results |
| --- | --- | --- |
| COc1ncnc(C2CC2)c1-c1ncc2ccc(=O)n(Cc3ccc(-c4nc(C(F)(F)F)cn4C(C)C)c(F)c3)c2n1 | 22.8 | – |
| COc1ncccc1-c1ncc2ccc(=O)n(Cc3ccc(-c4nc(C(F)(F)F)cn4C(C)C)cc3)c2n1 | – | inhibition [1]: 63.9% |
| COc1ncnc(C2CC2)c1-c1ncc2ccc(=O)n(Cc3ccc(-c4nc(C(F)(F)F)cn4C(C)C)c(C)c3)c2n1 | – | inhibition [1]: 77.9% |
| CC(C)c1ccccc1-c1ncc2ccc(=O)n(Cc3ccc(-c4nc(C(F)(F)F)cn4C(C)C)cc3)c2n1 | 33.9 | – |
| CC(C)n1cc(C(F)(F)F)nc1-c1ccc(Cn2c(=O)ccc3cnc(-c4cccc5cnn(C)c45)nc32)cc1 | > 10000 | – |
| COc1cc(-c2nc(C(F)(F)F)cn2C(C)C)ccc1Cn1c(=O)ccc2cnc(-c3c(OC)ncnc3C3CC3)nc21 | 319 | – |
| Cc1cnn(C)c1-c1ncc2ccc(=O)n(Cc3ccc(-c4nc(C(F)(F)F)cn4C(C)C)cc3)c2n1 | > 10000 | – |
| COc1ncnc(C2CC2)c1-c1ncc2ccc(=O)n(Cc3ccc(-n4ccnc4)cc3)c2n1 | – | inhibition [1]: 56.9% |
| COc1ncnc(C2CC2)c1-c1ncc2cnn(Cc3ccc(-c4nc(C(F)(F)F)cn4C(C)C)cc3)c2n1 | – | Activity [2]: Active |
| COc1ncnc(C2CC2)c1-c1ncc2ccc(=O)n(Cc3ccc(-c4ccc(C(F)(F)F)cn4)cc3)c2n1 | > 10000 | – |
| CC(C)n1cc(C(F)(F)F)nc1-c1ccc(Cn2c(=O)ccc3cnc(-c4ccccc4F)nc32)cc1 | 835 | – |
| CC(C)n1cc(C(F)(F)F)nc1-c1ccc(Cn2c(=O)ccc3cnc(-c4ccn(C)n4)nc32)cc1 | > 10000 | – |
| COc1ncnc(C2CC2)c1-c1ncc2ccc(=O)n(Cc3ccc(-c4cccc(C(F)(F)F)n4)cc3)c2n1 | 59.9 | – |
| Cc1ccccc1-c1ncc2ccc(=O)n(Cc3ccc(-c4nc(C(F)(F)F)cn4C(C)C)cc3)c2n1 | 511 | – |
| CC(C)n1cc(C(F)(F)F)nc1-c1ccc(Cn2c(=O)ccc3cnc(-c4ccccc4Cl)nc32)cc1 | 729 | – |
| Cc1cnn(C(C)C)c1-c1ncc2ccc(=O)n(Cc3ccc(-c4nc(C(F)(F)F)cn4C(C)C)cc3)c2n1 | > 10000 | – |
| CC(C)n1cc(C(F)(F)F)nc1-c1ccc(Cn2c(=O)ccc3cnc(-c4ccccc4OC(F)(F)F)nc32)cc1 | 39.8 | – |
